In brackets after ≈: the same amount, converted by molar mass.
What was measured:
HSV-1 = experiment: HSV Antiviral (ELISA) Assay in Vero cells; type: cell-based, herpes simplex virus type 1; conditions: HSV-1, Vero cells; for IC50: Human alphaherpesvirus 1, read-out: IC50 (ug/ml) HSV
Protocol: Vero cells (ATCC #CCL-81) are plated on 96-well tissue culture plates at 3.5×10^4 cells per 100 μl tissue culture DMEM (Dulbeccos modified Eagle media) supplemented with 2% fetal bovine serum (FBS) in each well. After overnight incubation @ 37° C. (in 5% CO2) and 30 minutes prior to infection with HSV-1 (multiplicity of infection equal to 0.006), cells are either untreated, or treated with test compound (multiple concentrations) or reference standard drug control. After approximately 24 hours post-infection incubation @ 37° C. (in 5% CO2), cells are fixed for ELISA assay. The primary antibody is murine anti-HSV glycoprotein D monoclonal primary antibody and the secondary antibody is goat anti-mouse IgG linked to β-galactosidase. Thus the extent of viral replication is determined by assessing β-galactosidase activity by quantifying the generation of the 4-methyl umbelliferone fluorescent cleavage product after addition of the methyl umbelliferyl-β-D-galactoside (Sigma #M1633) substrate on a microfluorimeter (365 nm for excitation and 450 nm for emission). Antiviral activity (IC50) of the test compound is determined by comparing the flourescence obtained in absence of compound to that obtained in the presence of compound.

VZV strain Ellen = experiment: VZV Antiviral (ELISA) Assay in human foreskin fibroblast cells; type: cell-based, varicella-zoster virus; conditions: for IC50: Human alphaherpesvirus 3, Fibroblast, read-out: IC50 (ug/ml) VZV
Protocol: For the generation of stock VZV to be used in the assay, VZV strain Ellen (ATCC #VR-1367) is used to infect human foreskin fibroblast (HFF) cells at low multiplicity (less than 0.1) and incubated overnight at 37° C. in 5% CO2. After the overnight incubation, the mixture of uninfected and VZV-infected HFF infected cells are then harvested and added to each well of 96-well plates (3.5×10^4 cells in 100 μl DMEM supplemented with 2% FBS) which contain test compound or the reference standard drug control (in 100 μl DMEM supplemented with 2% FBS per well). These cells are incubated for three days at 37° C. in 5% CO2, then fixed for ELISA assay. The primary antibody is murine anti-VZV glycoprotein II monoclonal antibody (Applied Biosystems, Inc. #13-145-100) and the secondary antibody is goat anti-mouse IgG linked to β-galactosidase. Thus the extent of viral replication is determined by assessing β-galactosidase activity by quantifying the generation of the 4-methyl umbelliferone fluorescent cleavage product after addition of the methyl umbelliferyl-β-D-galactoside (Sigma #M1633) substrate on a microfluorimeter (365 nm for excitation and 450 nm for emission). Antiviral activity (IC50) of the test compound is determined by comparing the flourescence obtained in absence of compound to that obtained in the presence of compound.

Structure (SMILES): COc1cc(OC)c(NC(=S)Nc2ccc(NC(=O)c3cccc(N(C)C)c3)cc2)cc1Cl [Example 136]
- IC50 (ug/ml) HSV (HSV-1): 1 µg/mL (≈ 2.06 µM)
- IC50 (ug/ml) VZV (VZV strain Ellen): >10 µg/mL
- % inhibition 10 ug/ml VZV (VZV strain Ellen): 40%

Structure (SMILES): COc1cc(OC)c(NC(=S)Nc2ccc(NC(=O)c3ccc4ccccc4c3)cc2)cc1Cl [Example 156]
- IC50 (ug/ml) HSV (HSV-1): 2 µg/mL (≈ 4.07 µM)
- IC50 (ug/ml) VZV (VZV strain Ellen): >10 µg/mL
- % inhibition 10 ug/ml VZV (VZV strain Ellen): 17%

Structure (SMILES): COc1cc(OC)c(NC(=S)Nc2ccc(NC(=O)c3ccccc3CO)cc2)cc1Cl [Example 185]
- IC50 (ug/ml) HSV (HSV-1): 3 µg/mL (≈ 6.36 µM)
- IC50 (ug/ml) VZV (VZV strain Ellen): >10 µg/mL
- % inhibition 10 ug/ml VZV (VZV strain Ellen): 32%

Structure (SMILES): CC(=O)Nc1ccc(NC(=S)Nc2ccc(NC(=O)c3ccccc3F)cc2)cc1Cl [Example 397]
- IC50 (ug/ml) HSV (HSV-1): 5 µg/mL (≈ 10.9 µM)
- IC50 (ug/ml) VZV (VZV strain Ellen): >10 µg/mL
- % inhibition 10 ug/ml VZV (VZV strain Ellen): 35%

Structure (SMILES): Cc1cccc(NC(=S)Nc2ccc(NC(=O)c3ccccc3F)cc2)c1 [Example 432]
- IC50 (ug/ml) HSV (HSV-1): 1.6 µg/mL (≈ 4.22 µM)
- IC50 (ug/ml) VZV (VZV strain Ellen): >10 µg/mL
- % inhibition 10 ug/ml VZV (VZV strain Ellen): 0%

Structure (SMILES): COc1cccc(NC(=S)Nc2ccc(NC(=O)c3ccccc3F)cc2)c1 [Example 487]
- IC50 (ug/ml) HSV (HSV-1): 4 µg/mL (≈ 10.1 µM)
- IC50 (ug/ml) VZV (VZV strain Ellen): >10 µg/mL
- % inhibition 10 ug/ml VZV (VZV strain Ellen): 48%

Structure (SMILES): O=C(Nc1ccc(NC(=S)Nc2ccc3[nH]cnc3c2)cc1)c1ccccc1F [Example 496]
- IC50 (ug/ml) HSV (HSV-1): >10 µg/mL
- IC50 (ug/ml) VZV (VZV strain Ellen): >10 µg/mL
- % inhibition 10 ug/ml VZV (VZV strain Ellen): 25%

Structure (SMILES): Cc1nc2cc(NC(=S)Nc3ccc(NC(=O)c4ccccc4F)cc3)ccc2[nH]1 [Example 497]
- IC50 (ug/ml) HSV (HSV-1): >10 µg/mL
- IC50 (ug/ml) VZV (VZV strain Ellen): >10 µg/mL
- % inhibition 10 ug/ml VZV (VZV strain Ellen): 10%

Structure (SMILES): O=C(Nc1ccc(NC(=S)NCCc2ccccc2F)cc1)c1ccccc1F [Example 721]
- IC50 (ug/ml) HSV (HSV-1): >10 µg/mL

Structure (SMILES): CC(C)(C)c1ccc(CNC(=S)Nc2ccc(NC(=O)c3ccccc3F)cc2)cc1 [Example 724]
- IC50 (ug/ml) HSV (HSV-1): >10 µg/mL

Structure (SMILES): Cc1cc(C)cc(CNC(=S)Nc2ccc(NC(=O)c3ccccc3F)cc2)c1 [Example 725]
- IC50 (ug/ml) HSV (HSV-1): >10 µg/mL

Structure (SMILES): CC(C)(NC(=S)Nc1ccc(NC(=O)c2ccccc2F)cc1)c1ccccc1 [Example 727]
- IC50 (ug/ml) HSV (HSV-1): >10 µg/mL

Structure (SMILES): CC(NC(=S)Nc1ccc(NC(=O)c2ccccc2F)cc1)c1cccc(C(F)(F)F)c1 (stereo not drawn) [Example 786]
- IC50 (HSV-1): > 10 µg/mL
- IC50 (VZV strain Ellen): > 7.5 µg/mL

Structure (SMILES): CC(NC(=S)Nc1ccc(NC(=O)c2ccccc2F)cc1)c1ccc(C(F)(F)F)cc1 (stereo not drawn) [Example 787]
- IC50 (HSV-1): > 10 µg/mL
- IC50 (VZV strain Ellen): > 7.5 µg/mL

Structure (SMILES): CC(NC(=S)Nc1ccc(NC(=O)c2ccccc2F)cc1)c1cccc(C#N)c1 (stereo not drawn) [Example 791]
- IC50 (HSV-1): > 10 µg/mL
- IC50 (VZV strain Ellen): 7 µg/mL (≈ 16.7 µM)

Structure (SMILES): CCCOc1ccc(NC(=S)Nc2ccc(NC(=O)c3ccccc3F)cc2)cc1Cl [Example 807]
- IC50 (ug/ml) HSV (HSV-1): >10 µg/mL
- IC50 (ug/ml) VZV (VZV strain Ellen): 0.9 µg/mL (≈ 1.97 µM)

Structure (SMILES): CC(NC(=S)Nc1ccc(NC(=O)c2ccc3ncccc3c2)cc1)c1ccc(F)cc1 (stereo not drawn) [Example 990, Quinoline-6-carboxylic acid (4-{3-[1-(4-fluoro-phenyl)-ethyl]-thioureido}-phenyl)-amide]
- IC50 (VZV strain Ellen): 3.5 µg/mL (≈ 7.87 µM)

Structure (SMILES): CC(NC(=S)Nc1ccc(NC(=O)c2ccccc2C#N)cc1)c1ccc(F)cc1 (stereo not drawn) [Example 993, 2-Cyano-N-(4-{3-[1-(4-fluoro-phenyl)-ethyl]-thioureido}-phenyl)-benzamide]
- IC50 (VZV strain Ellen): 2.7 µg/mL (≈ 6.45 µM)

Structure (SMILES): COc1cc(OCC(F)(F)F)ccc1NC(=S)Nc1ccc(NC(=O)c2ccccc2F)cc1 [Example 1006, 2-Fluoro-N-(4-{3-[2-methoxy-4-(2,2,2-trifluoro-ethoxy)-phenyl]-thioureido}-phenyl)-benzamide]
- IC50 (VZV strain Ellen): 11 µg/mL (≈ 22.3 µM)

Structure (SMILES): CC(NC(=S)Nc1ccc(NC(=O)c2ccccc2F)cc1)c1ccc(C(F)(F)F)cc1F (stereo not drawn) [Example 1106]
- IC50 (VZV strain Ellen): > 7.5 µg/mL

Structure (SMILES): C[C@H](NC(=S)Nc1ccc(NC(=O)c2nccc3ccccc23)cc1)c1ccc(Cl)cc1 [Example 1109]
- IC50 (VZV strain Ellen): 0.03 µg/mL (≈ 0.0651 µM)

Structure (SMILES): CC(NC(=S)Nc1ccc(NC(=O)c2nccc3ccccc23)cc1)c1ccc(F)cc1 (stereo not drawn) [Example 1110]
- IC50 (ug/ml) VZV (VZV strain Ellen): 0.05 µg/mL (≈ 0.112 µM)
